Source: doi:10.1101/2021.08.02.454818v1 (biorxiv, 2021)

Target: T1, CdRelQ (Clostridioides difficile, UniProt A0A9R0BI07)
T1 sequence (A0A9R0BI07 1-270): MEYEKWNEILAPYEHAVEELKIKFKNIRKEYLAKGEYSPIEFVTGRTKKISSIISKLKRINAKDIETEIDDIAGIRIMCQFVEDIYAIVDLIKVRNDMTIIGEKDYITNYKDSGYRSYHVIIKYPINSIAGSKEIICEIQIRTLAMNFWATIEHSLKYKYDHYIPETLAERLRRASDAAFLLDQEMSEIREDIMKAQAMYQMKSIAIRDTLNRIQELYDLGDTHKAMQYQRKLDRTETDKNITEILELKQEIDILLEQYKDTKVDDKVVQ
Assay: isothermal titration calorimetry, single-binding-site model

## Nc1nc2c(ncn2[C@@H]2O[C@H](COP(=O)(O)OP(=O)(O)O)[C@@H](O)[C@H]2O)c(=O)[nH]1 [GDP]
  Kd: 490 µM

## Nc1nc2c(ncn2[C@@H]2O[C@H](COP(=O)(O)OP(=O)(O)OP(=O)(O)O)[C@@H](O)[C@H]2O)c(=O)[nH]1 [GTP]
  Kd: 20.5 µM
